Patent US9676766B2, “Triazolopyridines” (BAYER INTELLECTUAL PROPERTY GMBH, priority 2009, dated 2017)

Biological target: T1, human kinase Mps-1 (Homo sapiens, UniProt P33981)
T1 construct: N-terminally GST-tagged human full length recombinant Mps-1 kinase; purchased Invitrogen, Karslruhe, Germany PV4071
T1 sequence (P33981 1-857): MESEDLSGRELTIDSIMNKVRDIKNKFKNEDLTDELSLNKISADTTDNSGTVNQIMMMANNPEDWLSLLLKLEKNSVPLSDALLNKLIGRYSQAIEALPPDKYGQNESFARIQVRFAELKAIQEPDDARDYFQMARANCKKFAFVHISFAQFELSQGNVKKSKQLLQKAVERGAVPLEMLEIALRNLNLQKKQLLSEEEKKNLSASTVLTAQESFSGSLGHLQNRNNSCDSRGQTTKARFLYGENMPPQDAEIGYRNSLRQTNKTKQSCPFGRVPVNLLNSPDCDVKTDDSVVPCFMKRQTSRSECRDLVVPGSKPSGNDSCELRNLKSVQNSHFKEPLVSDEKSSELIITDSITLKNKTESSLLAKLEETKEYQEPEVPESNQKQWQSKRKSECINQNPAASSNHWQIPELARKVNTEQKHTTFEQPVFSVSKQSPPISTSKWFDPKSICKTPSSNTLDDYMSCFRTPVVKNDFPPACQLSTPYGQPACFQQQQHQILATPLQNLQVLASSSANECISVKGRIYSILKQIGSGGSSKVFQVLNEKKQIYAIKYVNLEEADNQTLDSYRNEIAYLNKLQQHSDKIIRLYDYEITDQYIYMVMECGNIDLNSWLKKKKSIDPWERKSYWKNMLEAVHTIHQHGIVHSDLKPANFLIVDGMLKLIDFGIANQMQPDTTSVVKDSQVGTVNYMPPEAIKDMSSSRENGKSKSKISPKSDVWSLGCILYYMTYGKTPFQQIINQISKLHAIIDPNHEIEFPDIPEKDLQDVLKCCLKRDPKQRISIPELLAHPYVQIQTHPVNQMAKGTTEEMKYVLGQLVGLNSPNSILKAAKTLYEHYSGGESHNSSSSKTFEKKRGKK
Experiment: Mps-1 Kinase Assay (TR-FRET)
Assay type: biochemical
Conditions: N-terminally GST-tagged human full length recombinant Mps-1; 10 μM ATP; 1 μM biotinylated peptide substrate; 60 min at 22° C.; read-out: MPS1 Inhibition, IC50 in M

SMILES | IC50 [nM]
CN1CCN(CC(=O)Nc2ccc(-c3ccc4nc(Nc5ccccc5C(F)(F)F)nn4c3)cc2)CC1 [Example 5.4, 2-(4-methylpiperazin-1-yl)-N-[4-(2-{[2-(trifluoromethyl)phenyl]amino}[1,2,4]triazolo[1,5-a]pyridin-6-yl)phenyl]acetamide] | 2200
O=C(CN1CCOCC1)Nc1ccc(-c2ccc3nc(Nc4ccccc4C(F)(F)F)nn3c2)cc1 [Example 5.5, 2-(morpholin-4-yl)-N-[4-(2-{[2-(trifluoromethyl)phenyl]amino}[1,2,4]triazolo[1,5-a]pyridin-6-yl)phenyl]acetamide] | 3300
O=C(CN1CCCCC1)Nc1ccc(-c2ccc3nc(Nc4ccccc4C(F)(F)F)nn3c2)cc1 [Example 5.6, 2-(piperidin-1-yl)-N-[4-(2-{[2-(trifluoromethyl)phenyl]amino}[1,2,4]triazolo[1,5-a]pyridin-6-yl)phenyl]acetamide] | 880
O=C(Cc1cccnc1)Nc1ccc(-c2ccc3nc(Nc4ccccc4C(F)(F)F)nn3c2)cc1 [Example 5.8, 2-(pyridin-3-yl)-N-[4-(2-{[2-(trifluoromethyl)phenyl]amino}[1,2,4]triazolo[1,5-a]pyridin-6-yl)phenyl]acetamide] | 99
COc1ccccc1Nc1nc2ccc(-c3cccc(NC(=O)Cc4ccccc4)c3)cn2n1 [Example 8.1, N-(3-{2-[(2-methoxyphenyl)amino][1,2,4]triazolo[1,5-a]pyridin-6-yl}phenyl)-2-phenylacetamide] | 290
COc1ccccc1Nc1nc2ccc(-c3cccc(NC(=O)C4CC4)c3)cn2n1 [Example 8.2, N-(3-{2-[(2-methoxyphenyl)amino][1,2,4]triazolo[1,5-a]pyridin-6-yl}phenyl)cyclopropanecarboxamide] | 59
COc1ccccc1Nc1nc2ccc(-c3cccc(NS(=O)(=O)CC4CC4)c3)cn2n1 [Example 8.3, 1-Cyclopropyl-N-(3-{2-[(2-methoxyphenyl)amino][1,2,4]triazolo[1,5-a]pyridin-6-yl}phenyl)methanesulfonamide] | 66
COc1ccccc1Nc1nc2ccc(-c3cccc(NS(=O)(=O)C4CC4)c3)cn2n1 [Example 8.4, N-(3-{2-[(2-methoxyphenyl)amino][1,2,4]triazolo[1,5-a]pyridin-6-yl}phenyl)cyclopropanesulfonamide] | 290
COc1ccccc1Nc1nc2ccc(-c3cccc(NC(=O)Nc4ccccc4)c3)cn2n1 [Example 8.5, 1-(3-{2-[(2-methoxyphenyl)amino][1,2,4]triazolo[1,5-a]pyridin-6-yl}phenyl)-3-phenylurea] | 440
COc1ccccc1Nc1nc2ccc(-c3cccc(NS(=O)(=O)c4ccccc4)c3)cn2n1 [Example 8.6, N-(3-{2-[(2-methoxyphenyl)amino][1,2,4]triazolo[1,5-a]pyridin-6-yl}phenyl)benzenesulfonamide] | 360
COc1ccccc1Nc1nc2ccc(-c3cccc(NC(=O)c4ccccc4)c3)cn2n1 [Example 8.7, N-(3-{2-[(2-methoxyphenyl)amino][1,2,4]triazolo[1,5-a]pyridin-6-yl}phenyl)benzamide] | 290
COc1ccccc1Nc1nc2ccc(-c3cccc(NC(=O)N4CCN(C)CC4)c3)cn2n1 [Example 8.8, N-(3-{2-[(2-methoxyphenyl)amino][1,2,4]triazolo[1,5-a]pyridin-6-yl}phenyl)-4-methylpiperazine-1-carboxamide] | 620
COc1ccccc1Nc1nc2ccc(-c3cccc(NC(=O)NC4CC4)c3)cn2n1 [Example 8.9, 1-cyclopropyl-3-(3-{2-[(2-methoxyphenyl)amino][1,2,4]triazolo[1,5-a]pyridin-6-yl}phenyl)urea] | 84
COc1ccccc1Nc1nc2ccc(-c3cccc(NC(=O)N4CCOCC4)c3)cn2n1 [Example 8.10, N-(3-{2-[(2-methoxyphenyl)amino][1,2,4]triazolo[1,5-a]pyridin-6-yl}phenyl)morpholine-4-carboxamide] | 100
COc1ccccc1Nc1nc2ccc(-c3cccc(NC(=O)N4CCC(N(C)C)CC4)c3)cn2n1 [Example 8.11, 4-(dimethylamino)-N-(3-{2-[(2-methoxyphenyl)amino][1,2,4]triazolo[1,5-a]pyridin-6-yl}phenyl)piperidine-1-carboxamide] | 640
COc1ccccc1Nc1nc2ccc(-c3cccc(NC(=O)Nc4cccnc4)c3)cn2n1 [Example 8.12, 1-(3-{2-[(2-methoxyphenyl)amino][1,2,4]triazolo[1,5-a]pyridin-6-yl}phenyl)-3-pyridin-3-ylurea] | 270
COc1ccccc1Nc1nc2ccc(-c3cccc(NC(=O)NCCN4CCOCC4)c3)cn2n1 [Example 8.13, 1-(3-{2-[(2-methoxyphenyl)amino][1,2,4]triazolo[1,5-a]pyridin-6-yl}phenyl)-3-[2-(morpholin-4-yl)ethyl]urea] | 470
COc1ccccc1Nc1nc2ccc(-c3cccc(NC(=O)Nc4ccncc4)c3)cn2n1 [Example 8.14, 1-(3-{2-[(2-methoxyphenyl)amino][1,2,4]triazolo[1,5-a]pyridin-6-yl}phenyl)-3-pyridin-4-ylurea] | 660
CN1CCN(C(=O)c2cccc(-c3ccc4nc(Nc5ccccc5C#N)nn4c3)c2)CC1 [Example 9.1, 2-[(6-{3-[(4-methylpiperazin-1-yl)carbonyl]phenyl}[1,2,4]triazolo[1,5-a]pyridin-2-yl)amino]benzonitrile] | 59
N#Cc1ccccc1Nc1nc2ccc(-c3cccc(C(=O)NC4CCCC4)c3)cn2n1 [Example 9.2, 3-{2-[(2-cyanophenyl)amino][1,2,4]triazolo[1,5-a]pyridin-6-yl}-N-cyclopentylbenzamide] | 2.9
CN1CCC(NC(=O)c2cccc(-c3ccc4nc(Nc5ccccc5C#N)nn4c3)c2)CC1 [Example 9.3, 3-{2-[(2-cyanophenyl)amino][1,2,4]triazolo[1,5-a]pyridin-6-yl}-N-(1-methylpiperidin-4-yl)benzamide] | 74
N#Cc1ccccc1Nc1nc2ccc(-c3cccc(C(=O)NCc4ccccc4)c3)cn2n1 [Example 9.4, N-benzyl-3-{2-[(2-cyanophenyl)amino][1,2,4]triazolo[1,5-a]pyridin-6-yl}benzamide] | 21
N#Cc1ccccc1Nc1nc2ccc(-c3cccc(C(=O)NC4CC4)c3)cn2n1 [Example 9.5, 3-{2-[(2-cyanophenyl)amino][1,2,4]triazolo[1,5-a]pyridin-6-yl}-N-cyclopropylbenzamide] | 4.4
COc1ccccc1Nc1nc2ccc(-c3cccc(C(=O)NC4CC4)c3)cn2n1 [Example 10.1, N-cyclopropyl-3-{2-[(2-methoxyphenyl)amino][1,2,4]triazolo[1,5-a]pyridin-6-yl}benzamide] | 6.5
COc1ccccc1Nc1nc2ccc(-c3cccc(C(=O)NCc4ccccc4)c3)cn2n1 [Example 10.2, N-benzyl-3-{2-[(2-methoxyphenyl)amino][1,2,4]triazolo[1,5-a]pyridin-6-yl}benzamide] | 45
